Patent US7211269B2, “Cosmetic or dermatological use of peptides for promoting adhesion between skin cells” (Societe d' Extraction de Principes Actifs S.A., priority 2001, dated 2007)
Where no end group is shown, it is not given here.

Legend:
[1] = Stability of the peptide by HPLC at various temperatures; format: physicochemical; details: 10^-4 M
Procedure: (§1) The Peptide (Gly-Pro-Gln)2-NH2 (SEQ ID NO: 2) was analyzed with a concentration of 10^-4 M by HPLC on a column of the C18 type, and with a linear gradient water/TFA 0.1%—acetonitril/TFA 0.1%.

[2] = Stability of the peptide in culture medium removed from human fibroblasts and keratinocytes (released degradation enzymes), HPLC; format: in vitro ADME; details: medium from human fibroblasts and keratinocytes cultivated 24 hours at 37° C.; after 24 hours with peptide
Procedure: as §1
(§2) Human fibroblasts and keratinocytes were cultivated during 24 hours at 37° C. and 5% of CO2. For this period, the cells will release many degradation enzymes in the culture medium. Thereafter, the culture medium is removed to be put in the presence of the peptide.

[3] = tested on: fibroblasts and keratinocytes in culture; assay: Peptide applied to fibroblasts and keratinocytes in culture, HPLC analysis of the culture medium; format: cell-based, human
Procedure: as §2
A test is carried out by applying the peptide to the fibroblasts and to the keratinocytes in culture.
This assumption is then consolidated by the tests of effectiveness exposed in the […]

keratinocytes = assay: Adhesion of keratinocytes to pre-treated 96 wells micro-plates (MTT, OD reading); format: cell-based
Procedure: The study is carried out in 96 wells micro-plates on keratinocytes cultured in an incubator at 37° C. and 5% of CO2. The wells of these plates are pre-treated, for 12 hours, in different ways; four conditions have been realized: • Condition A: negative control, not containing peptide; • Condition B: incubated with various peptides, made up from 3 to 25 amino acids, with a concentration of 35 ppm; • Condition C: incubated with collagen of the type I with a concentration of 60 ppm; • Condition D: incubated with the peptide of sequence (Gly-Pro-Gln)2-NH2 (SEQ ID NO: 2) to a concentration of 5 ppm.
After 3 hours of contact with the keratinocytes, the wells are completely filled with medium, hermetically closed, turned over and agitated on a three-dimensional agitator during 20 minutes. Then the plates are emptied and the remaining medium is aspired. Then, 100 μl of MTT with 1 mg/ml are added by wells and are left for 3 hours at 37° C. and 5% CO2. The solution is finally withdrawn, then 100 μl of DMSO is added. A reading of the OD is made at 560 nm against 630 nm.
The OD is proportional to the quantity of viable cells, i.e. which adhered to the micro-plates.

decomposition of peptide (HPLC) ([1]; after 24 hours at 25° C., 37° C. and 60° C.): no decomposition
peptide degradation (HPLC) ([1]; after 8 days at 25° C.): no peptide degradation
degradation of the peptide in cell-conditioned culture medium [2]: almost no degradation
peptide concentration in the culture medium [3]: decreases quickly
Substance: GPQGPQ-NH2 [(Gly-Pro-Gln)2-NH2]
cell adhesion (in words) (keratinocytes; 5 ppm, after 3 hours of contact with the keratinocytes, compared with collagen of the type I at 60 ppm): good cell adhesion, similar to that of the collagen of the type I
O.D. (proportional to quantity of viable adhered cells) (keratinocytes; Condition D: wells pre-treated 12 hours with 5 ppm, 3 hours of contact with keratinocytes, OD 560 nm against 630 nm): 0.620
